Assay: Phase 1 study: safety and tolerability (TEAEs, NCI CTCAE v5.0)
Experimental: The study employed an open-label, 3+3 design, with the option of adding backfill patients to each cohort cleared and deemed safe. […] Tumor responses were assessed every 2 cycles using RECIST v1.1 criteria. […] The study also involves an ongoing dose escalation study where participants receive 100 mg, 200 mg, 300 mg, 400 mg, and 600 mg once daily (QD) dose levels.
Safety was assessed through the analysis of the reported incidence of treatment-emergent AEs. Treatment-emergent AEs are those with an onset on or after the initiation of therapy and will be graded according to NCI CTCAE Version 5.0. Other safety endpoints, including laboratory results, vital signs, and ECG findings, were summarized for all patients in the Safety set.

SMILES: O=C1CC[C@H](N2Cc3cc(N4CCN(CC5CCN(c6ccc([C@@H]7c8ccc(O)cc8OC[C@@H]7c7ccccc7)cc6F)CC5)CC4)ccc3C2=O)C(=O)N1 [compound (1-g), (S)-3-(5-(4-((1-(2-fluoro-4-((3S,4R)-7-hydroxy-3-phenylchroman-4-yl)phenyl)piperidin-4-yl)methyl)piperazin-1-yl)-1-oxoisoindolin-2-yl)piperidine-2,6-dione]
- TEAE: Urinary Tract Infection (200 mg QD (N = 12)): 1 (8.3) n (%)
- TEAE: Vaginal Haemorrhage (200 mg QD (N = 12)): 0 n (%)
- TEAE: Vomiting (200 mg QD (N = 12)): 1 (8.3) n (%)
- related TEAE: Alopecia (200 mg QD (N = 12)): 0 n (%)
- related TEAE: Arthralgia (200 mg QD (N = 12)): 1 (8.3) n (%)
- related TEAE: Constipation (200 mg QD (N = 12)): 0 n (%)
- related TEAE: Diarrhea (200 mg QD (N = 12)): 0 n (%)
- related TEAE: Dysgeusia (200 mg QD (N = 12)): 0 n (%)
- related TEAE: Eructation (200 mg QD (N = 12)): 0 n (%)
- related TEAE: Fatigue (200 mg QD (N = 12)): 1 (8.3) n (%)
- related TEAE: Flatulence (200 mg QD (N = 12)): 0 n (%)
- related TEAE: Hot Flush (200 mg QD (N = 12)): 1 (8.3) n (%)
- related TEAE: Hyperhidrosis (200 mg QD (N = 12)): 0 n (%)
- related TEAE: Nail Disorder (200 mg QD (N = 12)): 0 n (%)
- related TEAE: Nausea (200 mg QD (N = 12)): 0 n (%)
- related TEAE: Neutrophil Count Decreased (200 mg QD (N = 12)): 0 n (%)
- related TEAE: Platelet Count Decreased (200 mg QD (N = 12)): 0 n (%)
- related TEAE: Tremor (200 mg QD (N = 12)): 0 n (%)
- related TEAE: Vomiting (200 mg QD (N = 12)): 0 n (%)
- Patients with Any Compound (1-g) related TEAE (300 mg QD (N = 11)): 5 (45.5) n (%)
- Patients with Any TEAE (300 mg QD (N = 11)): 8 (72.7) n (%)
- TEAE: Abdominal Distension (300 mg QD (N = 11)): 1 (9.1) n (%)
- TEAE: Abdominal Pain (300 mg QD (N = 11)): 0 n (%)
- TEAE: Acute Kidney Injury (300 mg QD (N = 11)): 1 (9.1) n (%)
- TEAE: Adrenal Insufficiency (300 mg QD (N = 11)): 0 n (%)
- TEAE: Alopecia (300 mg QD (N = 11)): 0 n (%)
- TEAE: Anaemia (300 mg QD (N = 11)): 1 (9.1) n (%)
- TEAE: Anxiety (300 mg QD (N = 11)): 1 (9.1) n (%)
- TEAE: Arthralgia (300 mg QD (N = 11)): 0 n (%)
- TEAE: Axillary Vein Thrombosis (300 mg QD (N = 11)): 0 n (%)
- TEAE: Back Pain (300 mg QD (N = 11)): 1 (9.1) n (%)
- TEAE: Basal Cell Carcinoma (300 mg QD (N = 11)): 0 n (%)
- TEAE: Breast Pain (300 mg QD (N = 11)): 0 n (%)
- TEAE: Confusional State (300 mg QD (N = 11)): 0 n (%)
- TEAE: Constipation (300 mg QD (N = 11)): 1 (9.1) n (%)
- TEAE: Cough (300 mg QD (N = 11)): 0 n (%)
- TEAE: Covid-19 Pneumonia (300 mg QD (N = 11)): 0 n (%)
- TEAE: Dehydration (300 mg QD (N = 11)): 1 (9.1) n (%)
- TEAE: Diarrhoea (300 mg QD (N = 11)): 1 (9.1) n (%)
- TEAE: Dizziness (300 mg QD (N = 11)): 1 (9.1) n (%)
- TEAE: Dysgeusia (300 mg QD (N = 11)): 0 n (%)
- TEAE: Dyspepsia (300 mg QD (N = 11)): 0 n (%)
- TEAE: Dyspnoea (300 mg QD (N = 11)): 1 (9.1) n (%)
- TEAE: Dysuria (300 mg QD (N = 11)): 1 (9.1) n (%)
- TEAE: Eructation (300 mg QD (N = 11)): 0 n (%)
- TEAE: Fall (300 mg QD (N = 11)): 0 n (%)
- TEAE: Fatigue (300 mg QD (N = 11)): 1 (9.1) n (%)
- TEAE: Flatulence (300 mg QD (N = 11)): 1 (9.1) n (%)
- TEAE: Fracture (300 mg QD (N = 11)): 0 n (%)
- TEAE: Fungal Infection (300 mg QD (N = 11)): 1 (9.1) n (%)
- TEAE: Haematoma (300 mg QD (N = 11)): 1 (9.1) n (%)
- TEAE: Hot Flush (300 mg QD (N = 11)): 2 (18.2) n (%)
- TEAE: Hyperglycaemia (300 mg QD (N = 11)): 0 n (%)
- TEAE: Hyperhidrosis (300 mg QD (N = 11)): 0 n (%)
- TEAE: Hypokalaemia (300 mg QD (N = 11)): 1 (9.1) n (%)
- TEAE: Hypotension (300 mg QD (N = 11)): 0 n (%)
- TEAE: Influenza Like Illness (300 mg QD (N = 11)): 0 n (%)
- TEAE: Insomnia (300 mg QD (N = 11)): 0 n (%)
- TEAE: Lower Respiratory Tract Congestion (300 mg QD (N = 11)): 0 n (%)
- TEAE: Lymphocyte Count Decreased (300 mg QD (N = 11)): 0 n (%)
- TEAE: Muscle Spasm (300 mg QD (N = 11)): 0 n (%)
- TEAE: Muscular Weakness (300 mg QD (N = 11)): 0 n (%)
- TEAE: Musculoskeletal Stiffness (300 mg QD (N = 11)): 0 n (%)
- TEAE: Nail Disorder (300 mg QD (N = 11)): 0 n (%)
- TEAE: Nasal Congestion (300 mg QD (N = 11)): 0 n (%)
- TEAE: Nausea (300 mg QD (N = 11)): 4 (36.4) n (%)
- TEAE: Neutrophil Count Decreased (300 mg QD (N = 11)): 1 (9.1) n (%)
- TEAE: Oedema Peripheral (300 mg QD (N = 11)): 1 (9.1) n (%)
- TEAE: Ophthalmic Migraine (300 mg QD (N = 11)): 0 n (%)
- TEAE: Oral Pain (300 mg QD (N = 11)): 1 (9.1) n (%)
- TEAE: Pain In Extremity (300 mg QD (N = 11)): 0 n (%)
- TEAE: Pharyngitis (300 mg QD (N = 11)): 0 n (%)
- TEAE: Platelet Count Decreased (300 mg QD (N = 11)): 1 (9.1) n (%)
- TEAE: Pleural Effusion (300 mg QD (N = 11)): 1 (9.1) n (%)
- TEAE: Pneumonia (300 mg QD (N = 11)): 0 n (%)
- TEAE: Productive Cough (300 mg QD (N = 11)): 0 n (%)
- TEAE: Rash Maculo-Papular (300 mg QD (N = 11)): 0 n (%)
- TEAE: Rhinitis Allergic (300 mg QD (N = 11)): 1 (9.1) n (%)
- TEAE: Rib Fracture (300 mg QD (N = 11)): 0 n (%)
- TEAE: Seizure (300 mg QD (N = 11)): 0 n (%)
- TEAE: Sepsis (300 mg QD (N = 11)): 0 n (%)
- TEAE: Tremor (300 mg QD (N = 11)): 1 (9.1) n (%)
- TEAE: Upper Respiratory Tract Infection (300 mg QD (N = 11)): 1 (9.1) n (%)
- TEAE: Urinary Tract Infection (300 mg QD (N = 11)): 1 (9.1) n (%)
- TEAE: Vaginal Haemorrhage (300 mg QD (N = 11)): 1 (9.1) n (%)
- TEAE: Vomiting (300 mg QD (N = 11)): 1 (9.1) n (%)
- related TEAE: Alopecia (300 mg QD (N = 11)): 0 n (%)
- related TEAE: Arthralgia (300 mg QD (N = 11)): 0 n (%)
- related TEAE: Constipation (300 mg QD (N = 11)): 1 (9.1) n (%)
- related TEAE: Diarrhea (300 mg QD (N = 11)): 1 (9.1) n (%)
- related TEAE: Dysgeusia (300 mg QD (N = 11)): 0 n (%)
- related TEAE: Eructation (300 mg QD (N = 11)): 0 n (%)
- related TEAE: Fatigue (300 mg QD (N = 11)): 1 (9.1) n (%)
- related TEAE: Flatulence (300 mg QD (N = 11)): 0 n (%)
- related TEAE: Hot Flush (300 mg QD (N = 11)): 2 (18.2) n (%)
- related TEAE: Hyperhidrosis (300 mg QD (N = 11)): 0 n (%)
- related TEAE: Nail Disorder (300 mg QD (N = 11)): 0 n (%)
- related TEAE: Nausea (300 mg QD (N = 11)): 3 (27.3) n (%)
- related TEAE: Neutrophil Count Decreased (300 mg QD (N = 11)): 0 n (%)
- related TEAE: Platelet Count Decreased (300 mg QD (N = 11)): 0 n (%)
- related TEAE: Tremor (300 mg QD (N = 11)): 0 n (%)
- related TEAE: Vomiting (300 mg QD (N = 11)): 1 (9.1) n (%)
- Patients with Any Compound (1-g) related TEAE (400 mg QD (N = 6)): 3 (50.0) n (%)
- Patients with Any TEAE (400 mg QD (N = 6)): 4 (66.7) n (%)
- TEAE: Abdominal Distension (400 mg QD (N = 6)): 0 n (%)
- TEAE: Abdominal Pain (400 mg QD (N = 6)): 0 n (%)
- TEAE: Acute Kidney Injury (400 mg QD (N = 6)): 0 n (%)
- TEAE: Adrenal Insufficiency (400 mg QD (N = 6)): 0 n (%)
- TEAE: Alopecia (400 mg QD (N = 6)): 1 (16.7) n (%)
- TEAE: Anaemia (400 mg QD (N = 6)): 0 n (%)
- TEAE: Anxiety (400 mg QD (N = 6)): 0 n (%)
- TEAE: Arthralgia (400 mg QD (N = 6)): 0 n (%)
- TEAE: Axillary Vein Thrombosis (400 mg QD (N = 6)): 0 n (%)
- TEAE: Back Pain (400 mg QD (N = 6)): 0 n (%)
- TEAE: Basal Cell Carcinoma (400 mg QD (N = 6)): 0 n (%)
- TEAE: Breast Pain (400 mg QD (N = 6)): 0 n (%)
- TEAE: Confusional State (400 mg QD (N = 6)): 0 n (%)
- TEAE: Constipation (400 mg QD (N = 6)): 1 (16.7) n (%)
- TEAE: Cough (400 mg QD (N = 6)): 0 n (%)
- TEAE: Covid-19 Pneumonia (400 mg QD (N = 6)): 0 n (%)
- TEAE: Dehydration (400 mg QD (N = 6)): 0 n (%)
- TEAE: Diarrhoea (400 mg QD (N = 6)): 1 (16.7) n (%)
- TEAE: Dizziness (400 mg QD (N = 6)): 0 n (%)
- TEAE: Dysgeusia (400 mg QD (N = 6)): 1 (16.7) n (%)
- TEAE: Dyspepsia (400 mg QD (N = 6)): 0 n (%)
- TEAE: Dyspnoea (400 mg QD (N = 6)): 1 (16.7) n (%)
- TEAE: Dysuria (400 mg QD (N = 6)): 0 n (%)
- TEAE: Eructation (400 mg QD (N = 6)): 1 (16.7) n (%)
- TEAE: Fall (400 mg QD (N = 6)): 0 n (%)
- TEAE: Fatigue (400 mg QD (N = 6)): 2 (33.3) n (%)
- TEAE: Flatulence (400 mg QD (N = 6)): 1 (16.7) n (%)
- TEAE: Fracture (400 mg QD (N = 6)): 0 n (%)
- TEAE: Fungal Infection (400 mg QD (N = 6)): 0 n (%)
- TEAE: Haematoma (400 mg QD (N = 6)): 0 n (%)
- TEAE: Hot Flush (400 mg QD (N = 6)): 0 n (%)
- TEAE: Hyperglycaemia (400 mg QD (N = 6)): 0 n (%)
- TEAE: Hyperhidrosis (400 mg QD (N = 6)): 0 n (%)
- TEAE: Hypokalaemia (400 mg QD (N = 6)): 0 n (%)
- TEAE: Hypotension (400 mg QD (N = 6)): 1 (16.7) n (%)
- TEAE: Influenza Like Illness (400 mg QD (N = 6)): 0 n (%)
- TEAE: Insomnia (400 mg QD (N = 6)): 1 (16.7) n (%)
- TEAE: Lower Respiratory Tract Congestion (400 mg QD (N = 6)): 0 n (%)
- TEAE: Lymphocyte Count Decreased (400 mg QD (N = 6)): 0 n (%)
- TEAE: Muscle Spasm (400 mg QD (N = 6)): 1 (16.7) n (%)
- TEAE: Muscular Weakness (400 mg QD (N = 6)): 1 (16.7) n (%)
- TEAE: Musculoskeletal Stiffness (400 mg QD (N = 6)): 0 n (%)
- TEAE: Nail Disorder (400 mg QD (N = 6)): 1 (16.7) n (%)
- TEAE: Nasal Congestion (400 mg QD (N = 6)): 0 n (%)

Source: US20250381179A1, “CHROMAN-BASED COMPOUNDS FOR TREATING CANCER” (priority 2024, published 2025)
